Results on 37 molecules are retold here after US8173638B2 (Boehringer Ingelheim International GmbH, priority 2006, dated 2012).

T1 sequence (P34972 whole entry): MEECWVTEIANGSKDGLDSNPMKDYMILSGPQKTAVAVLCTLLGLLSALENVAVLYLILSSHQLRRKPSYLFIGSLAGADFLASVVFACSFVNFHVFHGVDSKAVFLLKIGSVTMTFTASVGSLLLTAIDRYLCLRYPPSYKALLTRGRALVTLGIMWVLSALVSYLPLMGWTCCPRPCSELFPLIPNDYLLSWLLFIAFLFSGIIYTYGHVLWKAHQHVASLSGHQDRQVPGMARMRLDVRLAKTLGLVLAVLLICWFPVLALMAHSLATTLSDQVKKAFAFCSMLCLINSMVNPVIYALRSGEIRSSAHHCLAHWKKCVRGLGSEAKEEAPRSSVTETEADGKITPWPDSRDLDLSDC

The test has as its target T1, human CB2R (Homo sapiens, UniProt P34972).
T1 construct: host or cells: CHO cells
Kind of test: CB2R mediated modulation of cAMP synthesis. In kind it is cell-based. The conditions noted are these: found through the use of the described assays (CB2 agonists); qualitative statement. The essentials: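 Forskolin (10 uM)-driven cAMP in human CB2R-expressing CHO cells, read with DiscoverX-XS kit after 30 min compound exposure at 37 °C, 1 mM IBMX, 0.25% BSA. 100% defined as forskolin cAMP relative to 1 uM CP55940 inhibition. Agonist EC50 via four-parameter logistic model.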
Consider `Cc1ccc(C(=O)N2CCCN(C(=O)Nc3ccc(C(C)(C)C)cc3)CC2)cc1` [4-(4-Methyl-benzoyl)-[1,4]diazepane-1-carboxylic acid (4-tert-butyl-phenyl)-amide], for which the agonistic activity entry was “agonistic activity”.

Consider `Cc1ccc(C(=O)N2CCCN(C(=O)Nc3ccc4ccccc4c3)CC2)cc1` [4-(4-Methyl-benzoyl)-[1,4]diazepane-1-carboxylic acid naphthalen-2-ylamide], for which the agonistic activity result is “agonistic activity”.

On to `CCCCc1ccc(NC(=O)N2CCCN(C(=O)CCC(C)C)CC2)cc1` [4-(4-Methyl-pentanoyl)-[1,4]diazepane-1-carboxylic acid (4-butyl-phenyl)-amide], for which the agonistic activity result is “agonistic activity”.

For the molecule `CC(C)CCC(=O)N1CCCN(C(=O)Nc2ccc(C(C)C)cc2)CC1` [4-(4-Methyl-pentanoyl)-[1,4]diazepane-1-carboxylic acid (4-isopropyl-phenyl)-amide], the agonistic activity entry was “agonistic activity”.

In the case of `CC(C)CCC(=O)N1CCCN(C(=O)Nc2ccc3ccccc3c2)CC1` [4-(4-Methyl-pentanoyl)-[1,4]diazepane-1-carboxylic acid naphthalen-2-ylamide], the agonistic activity entry is on record as “agonistic activity”.

Consider `CC(C)(C)c1cc(NC(=O)N2CCCN(C(=O)C3CCC(=O)CC3)CC2)no1` [4-(4-Oxo-cyclohexanecarbonyl)-[1,4]diazepane-1-carboxylic acid (5-tert-butyl-isoxazol-3-yl)-amide], for which the agonistic activity result is on record as “agonistic activity”.

On to `CC(C)(C)c1cc(NC(=O)N2CCCN(C(=O)c3ccc(C(F)(F)F)cc3)CC2)no1` [4-(4-Trifluoromethyl-benzoyl)-[1,4]diazepane-1-carboxylic acid (5-tert-butyl-isoxazol-3-yl)-amide], for which the agonistic activity result is “agonistic activity”.

Regarding `O=C(Nc1ccc2ccccc2c1)N1CCCN(C(=O)c2ccc(C(F)(F)F)cc2)CC1` [4-(4-Trifluoromethyl-benzoyl)-[1,4]diazepane-1-carboxylic acid naphthalen-2-ylamide], the agonistic activity result is listed as “agonistic activity”.

Consider `C[C@@H]1CN(C(=O)N2CCCN(C(=O)Nc3cc(C(C)(C)C)on3)CC2)C[C@H](C)O1` [4-((2R,6S)-2,6-Dimethyl-morpholine-4-carbonyl)-[1,4]diazepane-1-carboxylic acid (5-tert-butyl-isoxazol-3-yl)-amide], for which the agonistic activity result was “agonistic activity”.

Regarding `O=C(Nc1cc(-c2ccccc2)no1)N1CCCN(C(=O)N2CCOCC2)CC1` [4-(Morpholine-4-carbonyl)-[1,4]diazepane-1-carboxylic acid (3-phenyl-isoxazol-5-yl)-amide], the agonistic activity result is recorded as “agonistic activity”.

As to `CCC(C)c1cc(NC(=O)N2CCCN(C(=O)N3CCOCC3)CC2)on1` (stereo not shown) [4-(Morpholine-4-carbonyl)-[1,4]diazepane-1-carboxylic acid (3-sec-butyl-isoxazol-5-yl)-amide], the agonistic activity entry was “agonistic activity”.

Turning to `CC(C)(C)c1cc(NC(=O)N2CCCN(C(=O)N3CCOCC3)CC2)on1` [4-(Morpholine-4-carbonyl)-[1,4]diazepane-1-carboxylic acid (3-tert-butyl-isoxazol-5-yl)-amide], the agonistic activity result was “agonistic activity”.

As to `O=C(Nc1nc(-c2ccccc2)cs1)N1CCCN(C(=O)N2CCOCC2)CC1` [4-(Morpholine-4-carbonyl)-[1,4]diazepane-1-carboxylic acid (4-phenyl-thiazol-2-yl)-amide], the agonistic activity entry is on record as “agonistic activity”.

On to `CCC(C)c1ccc(NC(=O)N2CCCN(C(=O)N3CCOCC3)CC2)cc1` (stereo not shown) [4-(Morpholine-4-carbonyl)-[1,4]diazepane-1-carboxylic acid (4-sec-butyl-phenyl)-amide], for which the agonistic activity entry is “agonistic activity”.

Regarding `CC(C)(C)c1cc(NC(=O)N2CCCN(C(=O)N3CCCCC3)CC2)no1` [4-(Piperidine-1-carbonyl)-[1,4]diazepane-1-carboxylic acid (5-tert-butyl-isoxazol-3-yl)-amide], the agonistic activity entry was “agonistic activity”.

As to `CC(C)(C)c1cc(NC(=O)N2CCCN(C(=O)C3CCCNC3)CC2)no1` (stereo not shown) [4-(Piperidine-3-carbonyl)-[1,4]diazepane-1-carboxylic acid (5-tert-butyl-isoxazol-3-yl)-amide], the agonistic activity result is given as “agonistic activity”.

`CC(C)(C)c1cc(NC(=O)N2CCCN(C(=O)C3CCNCC3)CC2)no1` [4-(Piperidine-4-carbonyl)-[1,4]diazepane-1-carboxylic acid (5-tert-butyl-isoxazol-3-yl)-amide]: the agonistic activity entry was “agonistic activity”.

As for `CC(C)c1ccc(NC(=O)N2CCCN(C(=O)c3ccccn3)CC2)cc1` [4-(Pyridine-2-carbonyl)-[1,4]diazepane-1-carboxylic acid (4-isopropyl-phenyl)-amide], the agonistic activity result was “agonistic activity”.

As to `CCC(C)c1ccc(NC(=O)N2CCCN(C(=O)c3ccccn3)CC2)cc1` (stereo not shown) [4-(Pyridine-2-carbonyl)-[1,4]diazepane-1-carboxylic acid (4-sec-butyl-phenyl)-amide], the agonistic activity entry is “agonistic activity”.

Turning to `CC(C)c1ccc(NC(=O)N2CCCN(C(=O)c3ccncc3)CC2)cc1` [4-(Pyridine-4-carbonyl)-[1,4]diazepane-1-carboxylic acid (4-isopropyl-phenyl)-amide], the agonistic activity entry was “agonistic activity”.

As for `CC(C)(C)c1cc(NC(=O)N2CCCN(C(=O)C3CCCO3)CC2)no1` (stereo not shown) [4-(Tetrahydro-furan-2-carbonyl)-[1,4]diazepane-1-carboxylic acid (5-tert-butyl-isoxazol-3-yl)-amide], the agonistic activity entry is “agonistic activity”.

Consider `CC(C)(C)c1cc(NC(=O)N2CCCN(C(=O)C3CCOC3)CC2)no1` (stereo not shown) [4-(Tetrahydro-furan-3-carbonyl)-[1,4]diazepane-1-carboxylic acid (5-tert-butyl-isoxazol-3-yl)-amide], for which the agonistic activity result is recorded as “agonistic activity”.

For `CC(C)(C)c1cc(NC(=O)N2CCCN(C(=O)C3CCCCO3)CC2)no1` (stereo not shown) [4-(Tetrahydro-pyran-2-carbonyl)-[1,4]diazepane-1-carboxylic acid (5-tert-butyl-isoxazol-3-yl)-amide], the agonistic activity result is on record as “agonistic activity”.

Take `CC(C)(C)c1cc(NC(=O)N2CCCN(C(=O)C3CCCOC3)CC2)no1` (stereo not shown) [4-(Tetrahydro-pyran-3-carbonyl)-[1,4]diazepane-1-carboxylic acid (5-tert-butyl-isoxazol-3-yl)-amide]: the agonistic activity entry is “agonistic activity”.

With `Cn1c(NC(=O)N2CCCN(C(=O)C3CCOCC3)CC2)nc2ccccc21` [4-(Tetrahydro-pyran-4-carbonyl)-[1,4]diazepane-1-carboxylic acid (1-methyl-1H-benzoimidazol-2-yl)-amide], the agonistic activity entry is given as “agonistic activity”.

Regarding `Cn1nc(-c2ccccc2)cc1NC(=O)N1CCCN(C(=O)C2CCOCC2)CC1` [4-(Tetrahydro-pyran-4-carbonyl)-[1,4]diazepane-1-carboxylic acid (2-methyl-5-phenyl-2H-pyrazol-3-yl)-amide], the agonistic activity result was “agonistic activity”.

`O=C(Nc1cc(-c2ccccc2)no1)N1CCCN(C(=O)C2CCOCC2)CC1` [4-(Tetrahydro-pyran-4-carbonyl)-[1,4]diazepane-1-carboxylic acid (3-phenyl-isoxazol-5-yl)-amide]: the agonistic activity entry was “agonistic activity”.

Take `CCC(C)c1cc(NC(=O)N2CCCN(C(=O)C3CCOCC3)CC2)on1` (stereo not shown) [4-(Tetrahydro-pyran-4-carbonyl)-[1,4]diazepane-1-carboxylic acid (3-sec-butyl-isoxazol-5-yl)-amide]: the agonistic activity result is listed as “agonistic activity”.

On to `O=C(Nc1nc2c(s1)CCCC2)N1CCCN(C(=O)C2CCOCC2)CC1` [4-(Tetrahydro-pyran-4-carbonyl)-[1,4]diazepane-1-carboxylic acid (4,5,6,7-tetrahydro-benzothiazol-2-yl)-amide], for which the agonistic activity result is listed as “agonistic activity”.

For `Cc1nc(NC(=O)N2CCCN(C(=O)C3CCOCC3)CC2)sc1C` [4-(Tetrahydro-pyran-4-carbonyl)-[1,4]diazepane-1-carboxylic acid (4,5-dimethyl-thiazol-2-yl)-amide], the agonistic activity entry is reported as “agonistic activity”.

Turning to `CCCCc1ccc(NC(=O)N2CCCN(C(=O)C3CCOCC3)CC2)cc1` [4-(Tetrahydro-pyran-4-carbonyl)-[1,4]diazepane-1-carboxylic acid (4-butyl-phenyl)-amide], the agonistic activity result is “agonistic activity”.

Regarding `CCc1ccnc(NC(=O)N2CCCN(C(=O)C3CCOCC3)CC2)c1` [4-(Tetrahydro-pyran-4-carbonyl)-[1,4]diazepane-1-carboxylic acid (4-ethyl-pyridin-2-yl)-amide], the agonistic activity entry is recorded as “agonistic activity”.

Regarding `CC(C)c1ccc(NC(=O)N2CCCN(C(=O)C3CCOCC3)CC2)cc1` [4-(Tetrahydro-pyran-4-carbonyl)-[1,4]diazepane-1-carboxylic acid (4-isopropyl-phenyl)-amide], the agonistic activity result is “agonistic activity”.

Take `Cc1csc(NC(=O)N2CCCN(C(=O)C3CCOCC3)CC2)n1` [4-(Tetrahydro-pyran-4-carbonyl)-[1,4]diazepane-1-carboxylic acid (4-methyl-thiazol-2-yl)-amide]: the agonistic activity result is “agonistic activity”.

In the case of `O=C(Nc1nc(-c2ccccc2)cs1)N1CCCN(C(=O)C2CCOCC2)CC1` [4-(Tetrahydro-pyran-4-carbonyl)-[1,4]diazepane-1-carboxylic acid (4-phenyl-thiazol-2-yl)-amide], the agonistic activity result is reported as “agonistic activity”.

`CCC(C)c1ccc(NC(=O)N2CCCN(C(=O)C3CCOCC3)CC2)cc1` (stereo not shown) [4-(Tetrahydro-pyran-4-carbonyl)-[1,4]diazepane-1-carboxylic acid (4-sec-butyl-phenyl)-amide]: the agonistic activity entry is “agonistic activity”.

As to `Cc1sc(NC(=O)N2CCCN(C(=O)C3CCOCC3)CC2)nc1C(C)(C)C` [4-(Tetrahydro-pyran-4-carbonyl)-[1,4]diazepane-1-carboxylic acid (4-tert-butyl-5-methyl-thiazol-2-yl)-amide], the agonistic activity result is reported as “agonistic activity”.
